In US20050112573A1, “Method of detecting toxic substance” (priority 2001, published 2005):

Tested on: yeast genes (level of expressed mRNA)
Assay: DNA chip analysis of expressed mRNA of yeast genes after 2 h culture with a toxic chemical substance
Type: cell-based, Saccharomyces cerevisiae S288C
Conditions: for The level of expressed mRNA in the presence of chemical substance/ (ratio to absence): transport facilitation protein gene; for The level of expressed mRNA in the presence of chemical substance/: ratio to no chemical; for The level of expressed mRNA in the presence of chemical substance/ in its absence, gene YDL078C: yeast gene YDL078C
Procedure, shortened: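 S. cerevisiae S288C in YPD at 25 °C was exposed at log phase for 2 h to a growth-inhibiting, non-lethal concentration of the chemical. Poly(A) mRNA was reverse-transcribed with Cy3- or Cy5-dUTP and hybridized to a whole-genome yeast DNA chip (65 °C, >12 h). Values are fluorescence ratios versus untreated cells.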

## sodium dodecylbenzosulfonate [(17)]
Yeast gene YBR122C, mitochondria-located protein genes, 2 h culture with chemical
  The level of expressed mRNA in the presence of chemical substance/ (ratio to absence), gene YBR122C: 0.9
Yeast gene YBR127C
  The level of expressed mRNA in the presence of chemical substance/ (ratio to absence): 0.8
Yeast gene YBR132C
  The level of expressed mRNA in the presence of chemical substance/ (ratio to absence): 1.1
Yeast gene YBR149W
  The level of expressed mRNA in the presence of chemical substance/in the absence of chemical substance: 2.1
Yeast gene YBR207W
  The level of expressed mRNA in the presence of chemical substance/ (ratio to absence): 1.2
Yeast gene YBR214W
  The level of expressed mRNA in the presence of chemical substance/The level of expressed mRNA in the absence of chemical substance: 1.1
Yeast gene YBR241C
  The level of expressed mRNA in the presence of chemical substance/ (ratio to absence): 1.0
Yeast gene YBR251W, mitochondria-located protein genes, 2 h culture with chemical
  The level of expressed mRNA in the presence of chemical substance/ (ratio to absence), gene YBR251W: 0.9
Yeast gene YBR256C
  The level of expressed mRNA in the presence of chemical substance/in the absence of chemical substance: 2.6
Yeast gene YBR269C
  The level of expressed mRNA in the presence of chemical substance/: 1.5
Yeast gene YBR280C
  The level of expressed mRNA in the presence of chemical substance/: 1.1
Yeast gene YBR284W
  The level of expressed mRNA in the presence of chemical substance/in the absence of chemical substance: 1.1
Yeast gene YBR285W
  The level of expressed mRNA in the presence of chemical substance/: 2.5
Yeast gene YBR291C
  The level of expressed mRNA in the presence of chemical substance/ (ratio to absence): 0.9
Yeast gene YBR292C
  The level of expressed mRNA in the presence of chemical substance/: 0.9
Yeast gene YBR293W
  The level of expressed mRNA in the presence of chemical substance/ (ratio to absence): 1.0
Yeast gene YBR294W
  The level of expressed mRNA in the presence of chemical substance/in the absence of chemical substance: 1.0
Yeast gene YBR295W
  The level of expressed mRNA in the presence of chemical substance/ (ratio to absence): 1.3
Yeast gene YBR296C
  The level of expressed mRNA in the presence of chemical substance/in the absence of chemical substance: 3.8
Yeast gene YBR298C, ratio of DNA chip fluorescence intensity to that without chemical substance
  The level of expressed mRNA in the presence of chemical substance/ (in its absence), gene YBR298C: 0.9
Yeast gene YCL018W
  The level of expressed mRNA in the presence of chemical substance/in the absence of chemical substance: 1.3
Yeast gene YCL020W
  The level of expressed mRNA in the presence of chemical substance/The level of expressed mRNA in the absence of chemical substance: 0.9
Yeast gene YCL025C
  The level of expressed mRNA in the presence of chemical substance/ (ratio to absence): 0.6
Yeast gene YCL027W
  The level of expressed mRNA in the presence of chemical substance/The level of expressed mRNA in the absence of chemical substance: 0.7
Yeast gene YCL038C
  The level of expressed mRNA in the presence of chemical substance/ (ratio to absence): 1.4
Yeast gene YCL040W
  The level of expressed mRNA in the presence of chemical substance/in the absence of chemical substance: 1.4
Yeast gene YCL043C
  The level of expressed mRNA in the presence of chemical substance/in the absence of chemical substance: 0.9
Yeast gene YCL050C
  The level of expressed mRNA in the presence of chemical substance/in the absence of chemical substance: 1.0
Yeast gene YCL069W
  The level of expressed mRNA in the presence of chemical substance/ (ratio to absence): 1.0
Yeast gene YCR004C
  The level of expressed mRNA in the presence of chemical substance/The level of expressed mRNA in the absence of chemical substance: 1.4
Yeast gene YCR012W
  The level of expressed mRNA in the presence of chemical substance/in the absence of chemical substance: 0.8
Yeast gene YCR024C-A
  The level of expressed mRNA in the presence of chemical substance/ (ratio to absence): 0.9
Yeast gene YCR037C
  The level of expressed mRNA in the presence of chemical substance/ (ratio to absence): 1.4
Yeast gene YCR046C, mitochondria-located protein genes, 2 h culture with chemical
  The level of expressed mRNA in the presence of chemical substance/ (ratio to absence), gene YCR046C: 1.3
Yeast gene YCR071C
  The level of expressed mRNA in the presence of chemical substance/The level of expressed mRNA in the absence of chemical substance: 1.2
Yeast gene YCR083W, mitochondria-located protein genes, 2 h culture with chemical
  The level of expressed mRNA in the presence of chemical substance/ (ratio to absence), gene YCR083W: 1.3
Yeast gene YCR083W, stress protein genes, DNA chip
  The level of expressed mRNA in the presence of chemical substance/ (ratio to absence of chemical substance): 1.3
Yeast gene YCR088W
  The level of expressed mRNA in the presence of chemical substance/The level of expressed mRNA in the absence of chemical substance: 1.4
Yeast gene YCR098C
  The level of expressed mRNA in the presence of chemical substance/ (ratio to absence): 1.7
Yeast gene YCR107W
  The level of expressed mRNA in the presence of chemical substance/in the absence of chemical substance: 1.3
Yeast gene YDL008W
  The level of expressed mRNA in the presence of chemical substance/The level of expressed mRNA in the absence of chemical substance: 1.5
Yeast gene YDL010W
  The level of expressed mRNA in the presence of chemical substance/in the absence of chemical substance: 1.5
Yeast gene YDL021W
  The level of expressed mRNA in the presence of chemical substance/in the absence of chemical substance: 1.9
Yeast gene YDL024C
  The level of expressed mRNA in the presence of chemical substance/in the absence of chemical substance: 0.9
Yeast gene YDL067C, energy system protein genes, 2 h culture with the chemical, ratio to control without chemical
  The level of expressed mRNA in the presence of chemical substance/ in its absence, gene YDL067C: 1.2
Yeast gene YDL067C, mitochondria-located protein genes, 2 h culture with chemical
  The level of expressed mRNA in the presence of chemical substance/ (ratio to absence), gene YDL067C: 1.2
Energy system protein genes, 2 h culture with the chemical, ratio to control without chemical
  The level of expressed mRNA in the presence of chemical substance/ in its absence, gene YDL078C: 1.1
Ratio of DNA chip fluorescence intensity to that without chemical substance
  The level of expressed mRNA in the presence of chemical substance/ in its absence, gene YDL078C: 1.1
Yeast gene YDL095W
  The level of expressed mRNA in the presence of chemical substance/in the absence of chemical substance: 0.7
Yeast gene YDL113C
  The level of expressed mRNA in the presence of chemical substance/: 1.2
Yeast gene YDL123W
  The level of expressed mRNA in the presence of chemical substance/: 1.1
Yeast gene YDL124W
  The level of expressed mRNA in the presence of chemical substance/in the absence of chemical substance: 2.2
Yeast gene YDL128W
  The level of expressed mRNA in the presence of chemical substance/ (ratio to absence): 0.9
Yeast gene YDL149W
  The level of expressed mRNA in the presence of chemical substance/ (ratio to absence): 0.8
Yeast gene YDL174C
  The level of expressed mRNA in the presence of chemical substance/in the absence of chemical substance: 2.2
Yeast gene YDL198C
  The level of expressed mRNA in the presence of chemical substance/ (ratio to absence): 1.5
Yeast gene YDL206W
  The level of expressed mRNA in the presence of chemical substance/ (ratio to absence): 1.0
Yeast gene YDL210W
  The level of expressed mRNA in the presence of chemical substance/ (ratio to absence): 1.1
Yeast gene YDL215C, ratio of DNA chip fluorescence intensity to that without chemical substance
  The level of expressed mRNA in the presence of chemical substance/ (in its absence), gene YDL215C: 1.1
Yeast gene YDL234C
  The level of expressed mRNA in the presence of chemical substance/: 2.3
Yeast gene YDL238C
  The level of expressed mRNA in the presence of chemical substance/The level of expressed mRNA in the absence of chemical substance: 1.1
Yeast gene YDL242W
  The level of expressed mRNA in the presence of chemical substance/: 0.9
Yeast gene YDL243C
  The level of expressed mRNA in the presence of chemical substance/in the absence of chemical substance: 1.8
Yeast gene YDL245C
  The level of expressed mRNA in the presence of chemical substance/in the absence of chemical substance: 1.0
  The level of expressed mRNA in the presence of chemical substance/ (ratio to absence): 1.0
Yeast gene YDL246C
  The level of expressed mRNA in the presence of chemical substance/in the absence of chemical substance: 1.8
Yeast gene YDR001C
  The level of expressed mRNA in the presence of chemical substance/in the absence of chemical substance: 1.1
Yeast gene YDR018C
  The level of expressed mRNA in the presence of chemical substance/: 0.9
Yeast gene YDR038C
  The level of expressed mRNA in the presence of chemical substance/ (ratio to absence): 1.3
Yeast gene YDR039C
  The level of expressed mRNA in the presence of chemical substance/ (ratio to absence): 1.1
Yeast gene YDR040C
  The level of expressed mRNA in the presence of chemical substance/ (ratio to absence): 1.4
Yeast gene YDR055W
  The level of expressed mRNA in the presence of chemical substance/The level of expressed mRNA in the absence of chemical substance: 2.0
Yeast gene YDR056C
  The level of expressed mRNA in the presence of chemical substance/: 1.2
Yeast gene YDR058C
  The level of expressed mRNA in the presence of chemical substance/in the absence of chemical substance: 1.1
Yeast gene YDR072C
  The level of expressed mRNA in the presence of chemical substance/in the absence of chemical substance: 1.9
Yeast gene YDR073W, ratio of DNA chip fluorescence intensity to that without chemical substance
  The level of expressed mRNA in the presence of chemical substance/ (in its absence), gene YDR073W: 1.8
Yeast gene YDR079W, energy system protein genes, 2 h culture with the chemical, ratio to control without chemical
  The level of expressed mRNA in the presence of chemical substance/ in its absence, gene YDR079W: 1.1
Yeast gene YDR079W, mitochondria-located protein genes, 2 h culture with chemical
  The level of expressed mRNA in the presence of chemical substance/ (ratio to absence), gene YDR079W: 1.1
Yeast gene YDR084C
  The level of expressed mRNA in the presence of chemical substance/The level of expressed mRNA in the absence of chemical substance: 2.0
Yeast gene YDR085C
  The level of expressed mRNA in the presence of chemical substance/The level of expressed mRNA in the absence of chemical substance: 1.3
Yeast gene YDR104C
  The level of expressed mRNA in the presence of chemical substance/The level of expressed mRNA in the absence of chemical substance: 0.9
Yeast gene YDR115W
  The level of expressed mRNA in the presence of chemical substance/The level of expressed mRNA in the absence of chemical substance: 1.2
Yeast gene YDR127W
  The level of expressed mRNA in the presence of chemical substance/in the absence of chemical substance: 0.9
Yeast gene YDR132C
  The level of expressed mRNA in the presence of chemical substance/: 1.0
Yeast gene YDR154C
  The level of expressed mRNA in the presence of chemical substance/: 1.5
Yeast gene YDR158W
  The level of expressed mRNA in the presence of chemical substance/in the absence of chemical substance: 1.0
Yeast gene YDR202C
  The level of expressed mRNA in the presence of chemical substance/: 1.0
Yeast gene YDR204W
  The level of expressed mRNA in the presence of chemical substance/in the absence of chemical substance: 1.1
Yeast gene YDR223W
  The level of expressed mRNA in the presence of chemical substance/: 0.9
Yeast gene YDR259C
  The level of expressed mRNA in the presence of chemical substance/The level of expressed mRNA in the absence of chemical substance: 1.0
Yeast gene YDR261C
  The level of expressed mRNA in the presence of chemical substance/in the absence of chemical substance: 0.9
Yeast gene YDR270W
  The level of expressed mRNA in the presence of chemical substance/ (ratio to absence): 0.9
Yeast gene YDR272W
  The level of expressed mRNA in the presence of chemical substance/in the absence of chemical substance: 1.4
Yeast gene YDR295C
  The level of expressed mRNA in the presence of chemical substance/: 0.8
Yeast gene YDR297W, ratio of DNA chip fluorescence intensity to that without chemical substance
  The level of expressed mRNA in the presence of chemical substance/ (in its absence), gene YDR297W: 1.9
